The target of the experiment is T1, PaEP4L (Plecoglossus altivelis, UniProt A0A142DUN0).
T1 construct: gene EP4; MG1 insect cell membranes
The experiment is described as follows: [3H]-PGE2 saturation binding to MG1 insect cell membranes, Scatchard.

T1 sequence (A0A142DUN0 1-459): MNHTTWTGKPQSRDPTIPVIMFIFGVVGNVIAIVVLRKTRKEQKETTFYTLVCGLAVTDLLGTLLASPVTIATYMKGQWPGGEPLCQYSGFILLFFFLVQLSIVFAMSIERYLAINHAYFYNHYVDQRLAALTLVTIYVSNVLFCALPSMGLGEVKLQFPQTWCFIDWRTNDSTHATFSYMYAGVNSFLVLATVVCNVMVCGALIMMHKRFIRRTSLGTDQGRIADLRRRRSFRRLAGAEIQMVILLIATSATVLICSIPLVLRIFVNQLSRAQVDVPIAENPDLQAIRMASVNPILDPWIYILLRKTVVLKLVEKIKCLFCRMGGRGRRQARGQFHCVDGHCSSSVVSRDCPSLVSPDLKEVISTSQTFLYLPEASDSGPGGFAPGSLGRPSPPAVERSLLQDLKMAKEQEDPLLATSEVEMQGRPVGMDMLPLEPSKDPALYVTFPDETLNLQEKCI

Turning to `CCCCC[C@H](O)/C=C/[C@H]1[C@H](O)CC(=O)[C@@H]1C/C=C\CCCC(=O)O` [PGE2], the Kd – broadly, the free concentration of one partner at which half of the binding sites on the other are occupied at equilibrium, for simple one-to-one binding – is 120 nM.

For the origin of these results see publication PMC4726814, “Molecular Characterization of E-Type Prostanoid Receptor 4 (EP4) from Ayu (Plecoglossus altivelis) and Its Functional Analysis in the Monocytes/Macrophages” (PLoS ONE, 2016).
